# Test results from patent US4918099A, “Drug, preparation and use thereof” (priority 1985, dated 1990).
# Like-named read-outs stand apart in the source and are kept apart here.
# Experiments:
# [1] = Comparison of synthetic substances with full extract; conditions: synthetically prepared substance
# [2] = system: fat pads isolated from rats; assay: Lipogenesis: esterified lipids and free fatty acids in fat pads isolated from rats; type: in vivo
# Procedure: (§1) With (a) untreated (normal) control animals (rats), (b) diabetic rats, and (c) diabetic brazilin treated rats glucose oxidation and lipogenesis were investigated (by means of the esterified lipids and the free fatty acids). Diabetes was induced by intravenous administration of streptozotocin (40 mg/kg live weight). Brazilin was administered intraperitoneally for 15 days (100 mg/kg body weight). Within the same period the same volume of saline solution was administered to the untreated animals of the control group.
# The effects of additional brazilin administration on lipogenesis were determined by means of the esterified lipids and free fatty acids formed from 1-^14 C-glucose. The measurements were carried out according to established methods.
# prostacyclin production = assay: Prostacyclin production (6-keto PGF alpha); type: in vivo, rats
# Procedure: If an inhibiting action on MDA is detectable but no significant influence on the prostacyclin production can be detected, a selective inhibiting action on thromboxane A2 may be inferred.
# (§2) Rats were divided into four test groups, viz.
# (§3) Group B: Normal rats (8 laboratory animals) to which an aqueous brazilin solution (comprising 110 mg of brazilin per kg body weight) was daily administered from the 20th to the 30th day
# (§4) Group D: Diabetic rats (10 laboratory animals); for inducing diabetes, a dose of 70 mg of streptozotocin per kg body weight in 0.1M citrate buffer solution (pH 4.0) was administered intraperitoneally to normal rats on the 1st test day. From the 20th to the 30th day of the test aqueous brazilin solution (comprising 110 mg of brazilin per kg body weight) was daily administered orally to these diabetic rats. (Instead of an aqueous brazilin solution, the same amount of distilled water was administered to the laboratory animals of the groups A and C from the 20th to the 30th day.)
# After expiration of the 30th test day, the test animals were sacrificed, and the MDA production was determined by means of thrombin stimulated platelets.
# [3] = system: platelet aggregation in normal human plasma; assay: Platelet aggregation in normal human plasma induced by ADP; type: cell-based; conditions: for T/min, Aggregation (first value) / Tmax, Aggregation (first value): control 75.1; for activity at 1000 µM / inhibition at 1000 µM / activity at 100 µM / inhibition at 100 µM: Homo sapiens, Platelet; for activity at 1000 µM / activity at 100 µM: control 100
# Procedure: (§5) The platelet aggregation was determined by a tubimetric method in a dual-channel aggregometer, assuming that a platelet-poor plasma represented 100% aggregation and that a platelet-rich plasma represented 0% aggregation. Each aggregometer tube was charged with 40 μl of platelet-rich plasma and 50 μl of test sample solution. The mixture was incubated at 37° C. for 2 min., whereupon 50 μl of ADP solution were added. Percent inhibition of the platelet aggregation caused by the test sample solution was calculated as follows: [formula]
# [4] = system: lipid peroxidation in the mitochondria of rat liver; conditions: Arch. Pharm. Res. 7, 63-64, 1984; cited from earlier work
# [5] = Planta Med. 31, 214-220 (1977); cited from earlier work
# [6] = Body weight and blood sugar of the rats of the MDA test; type: in vivo; conditions: on 30th day
# Procedure: as §2, §3, §4
# [7] = Rev. Latinoam. Microbiol. 1, 225-232 (1958); cited from earlier work
# [8] = system: platelet aggregation in diabetic human plasma; assay: Platelet aggregation in diabetic human plasma induced by ADP; type: cell-based
# Procedure: as §5
# [9] = system: fat pads isolated from rats; assay: Glucose oxidation: formation of 14CO2 in fat pads isolated from rats; type: in vivo
# From the text: Insulin-dependent diabetes mellitus is frequently accompanied by insulin resistance. Frequently an impaired insulin action is also observed with streptozotocin induced diabetic rats. Such an insulin resistance is particularly also attributed to postreceptor defects.
# as §1
# For determining the effects of brazilin administration on the glucose oxidation, the method described by Winegard et al. (J. Biol. Chem. 233, 267 (1958)) was used, using ^14 C glucose (1-^14 C-glucose).
# [10] = system: erythrocyte deformability; assay: Erythrocyte deformability (filtration rate of blood); type: in vivo, rats
# Procedure: Increased blood viscosity and reduced erythrocyte deformability are typical pathological states of diabetic subjects. The effect of brazilin administration to diabetic laboratory animals (rats) on the blood viscosity and erythrocyte deformability of these animals was examined.
# For administering brazilin, the laboratory animals were daily injected intraperitoneally with a dose of 100 mg of brazilin per kg body weight for 10 days. For inducing diabetes, a dose of 175 mg of alloxan per kg body weight was administered intraperitoneally.
# For determining the erythrocyte deformability, the filtration rate of blood of the various laboratory animals containing approximately 4.9×10^12 erythrocytes per l was determined under common, standardized conditions.
# [11] = diabetic rats + brazilin, insulin 25 ng/ml
smiles,measurement,setting,value
Oc1ccc2c(c1)OC[C@]1(O)Cc3cc(O)c(O)cc3[C@H]21 [brazilin],effects compared with administration of major amounts of full extract,[1],substantially has the same effects
same,effect on the production of free fatty acids,[2]; basal and insulin stimulated,In none of the two cases additional administration of brazilin has any significant effect
same,"restoration of initial production of esterified lipids, basal",[2]; diabetic rats + brazilin,24.7%
same,"restoration of initial production of esterified lipids, insulin stimulated",[2]; [11],19.8%
same,"Glucose→FFA (free fatty acids), basal","[2]; diabetic rats + brazilin, n=6, not significant vs diabetic control, diabetic 2.60, normal 3.18",1.83 ± 0.43 nmol/100 mg tissue/120 min
same,"Glucose→E.L. (esterified lipids), basal","[2]; diabetic rats + brazilin, n=10, P < 0.01 vs. diabetic control, diabetic 78.8, normal 220.8",113.9 ± 9.5 nmol/100 mg tissue/120 min
same,"Glucose→FFA (free fatty acids), insulin stimulated","[2]; insulin 25 ng/ml, n=6, not significant vs diabetic control, diabetic 3.73, normal 8.42",3.39 ± 0.76 nmol/100 mg tissue/120 min
same,"Glucose→E.L. (esterified lipids), insulin stimulated","[2]; insulin 25 ng/ml, n=9, P < 0.1 vs diabetic control, diabetic 276.5, normal 528.0",326.2 ± 18.4 nmol/100 mg tissue/120 min
same,6-Keto PG F α,"prostacyclin production; diabetic rats + brazilin, diabetic control 0.19",0.18 ± 0.03 ng/mg
same,6-Keto PG F α,"prostacyclin production; normal rats + brazilin, normal control 0.18",0.17 ± 0.02 ng/mg
same,influence on the prostacyclin production,prostacyclin production; rats,no influence on the prostacyclin production could be observed
same,"T/min, Aggregation (first value)",[3]; 10^-3 M,21.1%
same,"Tmax, Aggregation (first value)",[3]; 10^-3 M,31.5%
same,"T/min, Aggregation (first value)",[3]; 10^-4 M,34.8%
same,"Tmax, Aggregation (first value)",[3]; 10^-4 M,60.7%
same,activity at 1000 µM,"[3]; 10^-3 M, read-out: T/min, Aggregation relative to control (second value)",28.1%
same,activity at 1000 µM,"[3]; 10^-3 M, read-out: Tmax, Aggregation relative to control (second value)",41.8%
same,inhibition at 1000 µM,"[3]; 10^-3 M, read-out: T/min, Inhibition",71.9%
same,inhibition at 1000 µM,"[3]; 10^-3 M, read-out: Tmax, Inhibition",58.2%
same,activity at 100 µM,"[3]; 10^-4 M, read-out: T/min, Aggregation relative to control (second value)",46.4%
same,activity at 100 µM,"[3]; 10^-4 M, read-out: Tmax, Aggregation relative to control (second value)",80.1%
same,inhibition at 100 µM,"[3]; 10^-4 M, read-out: T/min, Inhibition",53.6%
same,inhibition at 100 µM,"[3]; 10^-4 M, read-out: Tmax, Inhibition",19.9%
same,effect on lipid peroxidation in mitochondria of rat liver,[4],effect on the lipid peroxidation
same,anti-inflammatory effect,[5],anti-inflammatory effect
same,Blood sugar,"[6]; Group B (normal + brazilin), normal control 79",77 ± 20.3 mg/100 ml
same,Body weight,"[6]; Group B (normal + brazilin), normal control 222",226 ± 24.4 g
same,Blood sugar,"[6]; Group D (diabetic + brazilin), 266 on 20th day, diabetic control 337",165 ± 42.7 mg/100 ml
same,Body weight,"[6]; Group D (diabetic + brazilin), diabetic control 185",206 ± 9.61 g
same,antibacterial effect,[7],antibacterial effect
same,"T/min, Aggregation (first value)","[8]; 10^-3 M, control 78.7",8.75%
same,"Tmax, Aggregation (first value)","[8]; 10^-3 M, control 78.7",46.3%
same,"Tmax, Aggregation (first value)","[8]; 10^-4 M, control 78.7",70.0%
same,activity at 1000 µM,"[8]; Homo sapiens, Platelet, 10^-3 M, control 100, read-out: Tmax, Aggregation relative to control (second value)",58.8%
same,inhibition at 1000 µM,"[8]; Homo sapiens, Platelet, 10^-3 M, read-out: T/min, Inhibition",88.9%
same,inhibition at 1000 µM,"[8]; Homo sapiens, Platelet, 10^-3 M, read-out: Tmax, Inhibition",41.2%
same,activity at 100 µM,"[8]; Homo sapiens, Platelet, 10^-4 M, control 100, read-out: Tmax, Aggregation relative to control (second value)",88.9%
same,inhibition at 100 µM,"[8]; Homo sapiens, Platelet, 10^-4 M, read-out: Tmax, Inhibition",11.1%
same,inhibition of the platelet aggregation,[8]; conclusion on Tables 12 and 13,considerable inhibition of the platelet aggregation
same,"restoration of initial CO2 production, basal",[9]; diabetic rats + brazilin,74.6%
same,"Glucose→CO2, basal","[9]; diabetic rats + brazilin 100 mg/kg i.p. 15 days, n=8, P < 0.01 vs. diabetic control, diabetic 109.1, normal 172.8",156.6 ± 14.7 nmol/100 mg tissue/120 min
same,"restoration of initial CO2 production, insulin stimulated",[9]; [11],14.5%
same,"Glucose→CO2, insulin stimulated","[9]; insulin 25 ng/ml, diabetic rats + brazilin, n=8, P < 0.1 vs diabetic control, diabetic 236.6, normal 694.2",303.1 ± 19.0 nmol/100 mg tissue/120 min
same,Filtration rate,"[10]; alloxan diabetic rats + brazilin, P < 0.01 vs. untreated and vs. diabetic control (17.4)",19.6 ± 0.4 mL/min
same,effect on filtration rate of diabetic animals,[10]; diabetic rats + brazilin,significant increase of the filtration rate
same,effect on erythrocyte deformability,[10]; diabetic rats vs. control group,significant increase of the erythrocyte deformability
same,Filtration rate,"[10]; normal rats + brazilin 100 mg/kg i.p. 10 days, normal 22.9",23.1 ± 0.3 mL/min
same,effect on filtration rate of normal animals,[10]; untreated control group + brazilin,did not signficantly influence the filtration rate
